Measured values as given in patent US7642258B2 (Allergan, Inc., priority 2002, dated 2010).
Like-named read-outs stand apart in the source and are kept apart here. Each block holds one compound with its values, some of them ahead of it.

What was measured:
[1] = test system: patients with glaucoma or ocular hypertension; assay: Clinical study: intraocular pressure (IOP) lowering, multicenter double-masked randomized parallel-group; format: in vivo; conditions: range over week 2, week 6 and month 3 (hours 0, 2, 7, 9)
Procedure: IOP (hours 0, 2, 7, and 9), patient satisfaction questionnaire, patient comfort of study medication questionnaire, pharmacoeconomic evaluation by investigator
All data were summarized with descriptive statistics, frequency tables, and/or data listings. Safety analyses included all patients who received at least 1 dose of study medication. Analyses were performed for the primary efficacy variable IOP using the intent-to-treat (ITT) population with last observation carried forward (LOCF), and the per protocol population with observed cases.
Continuous variables (eg, IOP) were analyzed using analysis of variance (ANOVA). Within-group changes from baseline for continuous variables were analyzed using paired t-tests.
A 2-way ANOVA model with factors for treatment and investigator was used for the analysis of IOP. Comparisons were made between the Combination and each of the 2 monotherapies in a pairwise fashion using contrasts from the ANOVA model, with the same error term. A separate ANOVA model was employed at each hour/visit measurement of IOP. […] Point estimates of the mean treatment differences, as well as 2-sided 95% confidence intervals (CI) of the difference, were provided at each timepoint.

[2] = Clinical study: quantitation of plasma brimonidine and timolol concentrations; format: in vivo, patients; conditions: for concentration at 1 h: human, plasma, other: ophthalmic solution, 1 hour postdose, read-out: mean±SD plasma timolol concentration
[3] = test system: patients with glaucoma or ocular hypertension; assay: Clinical study: safety (adverse events, heart rate, blood pressure, visual acuity); format: in vivo

SMILES: Brc1c(N=C2NCCN2)ccc2nccnc12.O=C(O)C(O)C(O)C(=O)O [Brimonidine, 5-Bromo-6-(2-imidazolidinylideneamino)quinoxaline L-tartrate]
- Mean changes from baseline diurnal IOP [1]: −3.5 to −5.7 mm Hg
- Mean values of diurnal IOP [1]: 17.4 to 21.5 mm Hg

- concentration at 1 h ([2]; month 3): 0.873 ± 0.516 ng/mL
- concentration at 1 h ([2]; week 2): 0.95 ± 0.709 ng/mL
- plasma timolol concentration in males lower than in females ([2]; month 3): 39%
- plasma timolol concentration in males lower than in females ([2]; week 2): 45%
SMILES: CC(C)(C)NC[C@H](O)COc1nsnc1N1CCOCC1.O=C(O)/C=C\C(=O)O [Timolol]
- Mean changes from baseline diurnal IOP [1]: −4.5 to −6.4 mm Hg
- Mean values of diurnal IOP [1]: 17.5 to 18.9 mm Hg
- Serious adverse events reported ([3]; % of patients): 2.0%
- discontinuation of patients due to adverse events ([3]; % of patients): 3.0%
- allergic conjunctivitis, % of patients ([3]; adverse event through month 3): (0.0%)
- allergic conjunctivitis, number of patients ([3]; adverse event through month 3): 0
- asthenia, % of patients ([3]; adverse event through month 3): (0.5%)
- asthenia, number of patients ([3]; adverse event through month 3): 1
- burning sensation in eye, % of patients ([3]; adverse event through month 3): (12.7%)
- burning sensation in eye, number of patients ([3]; adverse event through month 3): 25
- conjunctival folliculosis, % of patients ([3]; adverse event through month 3): (0.5%)
- conjunctival folliculosis, number of patients ([3]; adverse event through month 3): 1
- conjunctival hyperemia, % of patients ([3]; adverse event through month 3): (5.6%)
- conjunctival hyperemia, number of patients ([3]; adverse event through month 3): 11
- epiphora, % of patients ([3]; adverse event through month 3): (1.5%)
- epiphora, number of patients ([3]; adverse event through month 3): 3
- eye pruritus, % of patients ([3]; adverse event through month 3): (1.5%)
- eye pruritus, number of patients ([3]; adverse event through month 3): 3
- foreign body sensation, % of patients ([3]; adverse event through month 3): (2.5%)
- foreign body sensation, number of patients ([3]; adverse event through month 3): 5
- infection (body as a whole), % of patients ([3]; adverse event through month 3): (4.1%)
- infection (body as a whole), number of patients ([3]; adverse event through month 3): 8
- oral dryness, % of patients ([3]; adverse event through month 3): (0.5%)
- oral dryness, number of patients ([3]; adverse event through month 3): 1
- somnolence, % of patients ([3]; adverse event through month 3): (0.0%)
- somnolence, number of patients ([3]; adverse event through month 3): 0
- stinging sensation eye, % of patients ([3]; adverse event through month 3): (5.6%)
- stinging sensation eye, number of patients ([3]; adverse event through month 3): 11
- visual disturbance, % of patients ([3]; adverse event through month 3): (1.5%)
- visual disturbance, number of patients ([3]; adverse event through month 3): 3
- incidence of eye discharge ([3]; through month 3): 0%
- patients who experienced one or more adverse events, regardless of causality ([3]; through month 3): 50.8%
